{
  "source": "patent US20240101528A1",
  "about": "“SUBSTITUTED PYRAZOLO PIPERIDINE CARBOXYLIC ACIDS” (BAYER AKTIENGESELLSCHAFT, priority 2020, published 2024)",
  "biological_target": "T1, recombinant guanylate cyclase reporter cell line (Rattus norvegicus, UniProt P20595)",
  "T1 construct": "expressed in transfected cells",
  "T1 sequence (P20595 1-619)": "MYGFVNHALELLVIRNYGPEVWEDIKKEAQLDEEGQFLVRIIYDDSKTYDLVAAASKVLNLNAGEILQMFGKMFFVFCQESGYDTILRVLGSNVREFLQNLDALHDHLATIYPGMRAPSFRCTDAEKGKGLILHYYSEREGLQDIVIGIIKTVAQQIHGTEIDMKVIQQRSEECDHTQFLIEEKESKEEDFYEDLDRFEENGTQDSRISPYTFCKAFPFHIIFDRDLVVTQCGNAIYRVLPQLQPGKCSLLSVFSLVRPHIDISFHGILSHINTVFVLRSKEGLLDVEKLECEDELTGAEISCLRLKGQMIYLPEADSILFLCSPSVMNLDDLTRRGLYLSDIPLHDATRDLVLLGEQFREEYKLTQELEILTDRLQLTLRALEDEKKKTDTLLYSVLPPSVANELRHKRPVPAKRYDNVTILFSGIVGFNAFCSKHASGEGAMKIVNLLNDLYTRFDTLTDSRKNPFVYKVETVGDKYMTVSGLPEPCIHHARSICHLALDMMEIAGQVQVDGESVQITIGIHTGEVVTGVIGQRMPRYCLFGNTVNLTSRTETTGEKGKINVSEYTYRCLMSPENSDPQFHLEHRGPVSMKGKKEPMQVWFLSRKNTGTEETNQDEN",
  "T1 sequence (P19686 1-690 partner)": "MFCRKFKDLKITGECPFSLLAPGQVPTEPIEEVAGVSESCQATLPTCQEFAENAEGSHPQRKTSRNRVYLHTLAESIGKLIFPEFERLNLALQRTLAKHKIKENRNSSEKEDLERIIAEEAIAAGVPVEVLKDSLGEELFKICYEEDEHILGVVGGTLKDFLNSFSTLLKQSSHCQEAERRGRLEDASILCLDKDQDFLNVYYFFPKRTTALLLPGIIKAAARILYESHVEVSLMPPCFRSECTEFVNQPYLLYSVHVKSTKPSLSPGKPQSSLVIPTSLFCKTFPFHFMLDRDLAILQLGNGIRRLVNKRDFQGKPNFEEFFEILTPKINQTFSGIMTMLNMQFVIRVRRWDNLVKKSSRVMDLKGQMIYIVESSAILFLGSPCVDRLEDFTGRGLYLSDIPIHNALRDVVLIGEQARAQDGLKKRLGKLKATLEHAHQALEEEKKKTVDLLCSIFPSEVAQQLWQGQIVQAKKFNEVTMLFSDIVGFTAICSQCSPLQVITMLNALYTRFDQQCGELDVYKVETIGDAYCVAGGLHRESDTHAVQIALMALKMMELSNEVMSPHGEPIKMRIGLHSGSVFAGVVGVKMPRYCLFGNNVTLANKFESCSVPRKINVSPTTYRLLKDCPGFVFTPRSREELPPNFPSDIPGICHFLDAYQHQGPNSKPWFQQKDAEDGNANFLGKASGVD",
  "assay": "Effect on a recombinant guanylate cyclase reporter cell line",
  "type": "cell-based",
  "settings": "for EC50: half maximal effective concentration; for MEC: minimum effective concentration",
  "description": "B-1. Effect on a Recombinant Guanylate Cyclase Reporter Cell Line\nThe cellular activity of the compounds according to the invention was determined using a recombinant guanylate cyclase reporter cell line, as described in F. Wunder et al., Anal. Biochem. 339, 104-112 (2005).",
  "note": "Where a name gives a salt, the structure may show the parent alone.",
  "data": [
    {"molecule": "CCCN1CCN(c2ccc(-c3ccc(Cl)cc3N3CCCC(n4ncc(C(=O)O)c4C(F)F)C3)cn2)CC1", "note": "(single isomer, unassigned; enantiomer 2) [Example 61, 1-(1-{5-Chloro-2-[6-(4-propylpiperazin-1-yl)pyridin-3-yl]phenyl}piperidin-3-yl)-5-(difluoromethyl)-1H-pyrazole-4-carboxylic acid hydrochloride (Enantiomer 2)]", "values": [
      {"measurement": "EC50", "value": 28.5, "unit": "nM"},
      {"measurement": "MEC", "value": 10.0, "unit": "nM"}
    ]},
    {"molecule": "CN1CCN(c2ccc(-c3ccc(Cl)cc3N3CCCC(n4ncc(C(=O)O)c4C(F)F)C3)cc2)CC1", "note": "(single isomer, unassigned; enantiomer 2) [Example 2, 1-{1-[4-Chloro-4′-(4-methylpiperazin-1-yl)[biphenyl]-2-yl]piperidin-3-yl}-5-(difluoromethyl)-1H-pyrazole-4-carboxylic acid hydrochloride (Enantiomer 2)]", "values": [
      {"measurement": "EC50", "value": 25.2, "unit": "nM"},
      {"measurement": "MEC", "value": 7.0, "unit": "nM"}
    ]},
    {"molecule": "O=C(O)c1cnn(C2CCCN(c3cc(Cl)ccc3-c3ccc(N4CCN(C5COC5)CC4)cc3)C2)c1C(F)F", "note": "(single isomer, unassigned; enantiomer 1) [Example 42, 1-(1-{4-Chloro-4′-[4-(oxetan-3-yl)piperazin-1-yl][biphenyl]-2-yl}piperidin-3-yl)-5-(difluoromethyl)-1H-pyrazole-4-carboxylic acid hydrochloride (Enantiomer 1)]", "values": [
      {"measurement": "EC50", "value": 71, "unit": "nM"},
      {"measurement": "MEC", "value": 30.0, "unit": "nM"}
    ]},
    {"molecule": "O=C(O)c1cnn(C2CCCN(c3cc(Cl)ccc3-c3ccc(N4CCN(CC5CC5)CC4)cc3)C2)c1C(F)F", "note": "(single isomer, unassigned; enantiomer 1) [Example 10, 1-[1-{4-Chloro-4′-[4-(cyclopropylmethyl)piperazin-1-yl][1,1′-biphenyl]-2-yl}piperidin-3-yl]-5-(difluoromethyl)-1H-pyrazole-4-carboxylic acid hydrochloride (Enantiomer 1)]", "values": [
      {"measurement": "EC50", "value": 9.2, "unit": "nM"},
      {"measurement": "MEC", "value": 0.8, "unit": "nM"}
    ]},
    {"molecule": "O=C(O)c1cnn(C2CCCN(c3cc(Cl)ccc3-c3ccc(N4CCN(CC5CC5C(F)(F)F)CC4)cc3)C2)c1C(F)F", "note": "(mixture of isomers) [Example 39, 1-{1-[4-Chloro-4′-(4-{[cis-2-(trifluoromethyl)cyclopropyl]methyl}piperazin-1-yl) [biphenyl]-2-yl]piperidin-3-yl}-5-(difluoromethyl)-1H-pyrazole-4-carboxylic acid hydrochloride (Diastereomeric Mixture 2)]", "values": [
      {"measurement": "EC50", "value": 14.5, "unit": "nM"},
      {"measurement": "MEC", "value": 1.0, "unit": "nM"}
    ]},
    {"molecule": "O=C(O)c1cnn(C2CCCN(c3cc(Cl)ccc3-c3ccc(N4CCN(CC5CC56CC6)CC4)cc3)C2)c1C(F)F", "note": "(mixture of isomers) [Example 41, 1-[1-[5-Chloro-2-[4-[4-(spiro[2.2]pentan-2-ylmethyl)piperazin-1-yl]phenyl]phenyl]-3-piperidyl]-5-(difluoromethyl)pyrazole-4-carboxylic acid hydrochloride (Diastereomeric mixture 2)]", "values": [
      {"measurement": "EC50", "value": 8.3, "unit": "nM"},
      {"measurement": "MEC", "value": 1.0, "unit": "nM"}
    ]},
    {"molecule": "O=C(O)c1cnn(C2CCCN(c3cc(Cl)ccc3-c3ccc(N4CCN(CCC(F)(F)F)CC4)nc3)C2)c1C(F)F", "note": "(single isomer, unassigned; enantiomer 2) [Example 67, 1-[1-(5-Chloro-2-{6-[4-(3,3,3-trifluoropropyl)piperazin-1-yl]pyridin-3-yl}phenyl)piperidin-3-yl]-5-(difluoromethyl)-1H-pyrazole-4-carboxylic acid hydrochloride (Enantiomer 2)]", "values": [
      {"measurement": "EC50", "value": "< 1", "unit": "nM"},
      {"measurement": "MEC", "value": "<0.3", "unit": "nM"}
    ]},
    {"molecule": "O=C(O)c1cnn(C2CCCN(c3cc(Cl)ccc3-c3ccc(N4CCN(CC5CC5(F)F)CC4)cc3)C2)c1C(F)F", "note": "(single isomer, unassigned; diastereomer 4) [Example 31, 1-{1-[4-Chloro-4′-(4-{[2,2-difluorocyclopropyl]methyl}piperazin-1-yl)[biphenyl]-2-yl]piperidin-3-yl}-5-(difluoromethyl)-1H-pyrazole-4-carboxylic acid hydrochloride (Diastereomer 4)]", "values": [
      {"measurement": "EC50", "value": 5.1, "unit": "nM"},
      {"measurement": "MEC", "value": 1.0, "unit": "nM"}
    ]}
  ]
}
